Laboratory results from a melting point compilation (Tetko et al.; mined from patent text by program, amines drawn as free bases though some values may be those of a salt).

Compound	melting point [°C]
Cn1cnc(COc2nn3c(-c4ccccc4)nnc3cc2-c2ccccc2)n1	229 to 233
O=C(O)c1ccc(NCCc2ccc(F)cc2)cc1	161 to 163
O=C(O)CC(CO)C(=O)c1ccc(Cl)c([N+](=O)[O-])c1 (stereo not drawn)	210 to 213
CCC1(CC(=O)O)CCCc2c1n(C)c1ccccc21 (stereo not drawn)	140 to 143
CON(C)C(=O)c1ccc(-c2ccc(CN(C)C)cc2)cc1	42 to 43
CC(C)(N)c1ccc(-c2nc(Nc3cc(F)c(F)c(F)c3)ncc2C#N)cc1	220
CCC(=O)Nc1cc(S(=O)(=O)c2ccccc2)ccc1NC(=NC(=O)OC)NC(=O)OC	137
CCc1nc2c(cnn2CC)c(NC2CCOCC2)c1CNC(=O)c1cccc(C(=O)NCc2ccc(C)c(-c3cccc(C=O)c3)c2)c1	114 to 117
COc1cc(C(F)(F)F)cnc1O	115 to 117
CCCC(NS(=O)(=O)c1ccccc1)P(=O)(Oc1ccccc1)Oc1ccccc1 (stereo not drawn)	173 to 175
CCCc1c(OCCOc2ccccc2C(=O)NCCCCc2cccnc2)ccc(C(C)=O)c1O	77 to 80
CCCCCCCCCCCCCc1cc(C(=O)O)c[nH]1	82 to 84
CN1CCN(c2cccc3ccc(NC(N)=S)cc23)CC1	194 to 195
Fc1ccc(Nc2ncnc3cnc(NC4CCNCC4)nc23)cc1Cl	239 to 243
CCCS(=O)(=O)Oc1ccc(CO)c(Oc2ncc(C(F)(F)F)cc2Cl)c1	68.5 to 69.5
Cc1cc(-c2cn(-c3cccc(OCCn4ccnc4)c3)c3ncnc(N)c23)ccc1OCc1ccccc1	158 to 160
O=C(CC(CCCc1ccccc1)C(=O)O)c1ccc(Br)cc1 (stereo not drawn)	147
C#CC(CC(=O)OC(C)(C)C)N=Cc1ccccc1 (stereo not drawn)	199 to 200
CCc1cc(OCC(=O)O)c(C)cc1SCc1sc(-c2ccc(C(F)(F)F)cc2)nc1C	169 to 171
c1ccc(COc2ccc(CCCn3ccnc3)cc2)cc1	80 to 81
O=S(=O)(NCCc1ccc(C(O)CCCO)cc1)c1ccccc1Cl (stereo not drawn)	101
O=c1[nH]c2ncc(Br)cc2o1	229 to 230
COc1ccc2c(c1)c(=O)c(S(=O)(=O)N(C)C)cn2C	199 to 201
CCOc1ccccc1-c1ncc(-c2nnn[nH]2)c(=O)[nH]1	289 to 290
NC1=C2C=NN=C2N(c2ccccc2)CN1Cc1ccccc1	167 to 168
Cc1cc(OCC2CO2)c2cc(C(=O)N(C)C)[nH]c2c1 (stereo not drawn)	197 to 204

Compound	melting point [°C]
Cn1nnc2cccc(S(N)(=O)=O)c21	198 to 200
O=C(Nc1ccccc1)OCC1CSC2=C(O1)c1ccccc1C(=O)C2=O (stereo not drawn)	250 to 252
Cc1cccc(C)c1N(CCn1ccnc1)C(=O)CCCc1cccnc1	104 to 106
O=C(OC1COC(n2cc(CCN3C(=O)c4ccccc4C3=O)c(=O)[nH]c2=O)C(OC(=O)c2ccccc2)C1OC(=O)c1ccccc1)c1ccccc1 (stereo not drawn)	124
Cn1cc(C(=O)Nc2cc(Cl)ccc2-c2cccc(Cl)c2)c(C(F)(Cl)Cl)n1	145 to 146
O=C1Nc2ccc(-c3ccc(Cl)cc3)cc2C1=NO	236 to 237
COC(=O)C1=C(C)Nc2nccn2C1c1cccc(C2(C)OCCO2)c1 (stereo not drawn)	199 to 201
O=[N+]([O-])C(Sc1ccccc1)=C1NCCCS1	144 to 147
CC(C)c1cccc(C(C)C)c1NC(=O)Nc1nc(-c2ccccc2)ns1	180 to 183
CC(=O)c1cnc2c(NC(=O)c3c(Cl)cccc3Cl)cccc2c1	243 to 245
CC(=O)Oc1ccccc1C(=O)SC(C)C(=O)NCC(=O)O (stereo not drawn)	100 to 102
CCOC(c1ccccc1)(c1ccccc1)C(C)CNC (stereo not drawn)	85
O=C(CC1CCCCC1)Nc1c(Cl)ccc2nc(N3CC[C@H](NS(=O)(=O)C(F)(F)F)C3)ccc12	178 to 200
CCCc1nc(C(C)(C)O)c(C(=O)OCOC(=O)C(C)(C)C)n1Cc1ccc(-c2ccccc2C(=O)OC(C)(C)C)cc1	106 to 107
CCOCc1nc2cnc3cc(Br)cnc3c2n1CC(C)C	115 to 116
COC(=O)c1ccc(NC(=O)C(CC2CCCC2)c2ccc(F)c(C(F)(F)F)c2)nc1 (stereo not drawn)	270 to 275
Clc1ccc(/C=C/c2ccc[nH]2)cc1	172
Cc1ccc2[nH]c(=O)oc(=O)c2c1	257
CCC(=O)NC1COC2=CC3=C(OCCC3)C(=O)C21 (stereo not drawn)	184
COc1cc(-c2nc3ccc(OCCCN4CCCCC4)cc3n2Cc2ccccc2)cc(OC)c1OC	92
COc1ccc(C(O)C(=O)c2ccccc2)cc1F (stereo not drawn)	127 to 130
O=C(O)/C=C/c1ccc(N2CCCC2)cc1	265
CCNC(=O)N(C)C1c2ccccc2Oc2ccccc21	139 to 141
Fc1cc(Cn2ccnc2)cc2c1Cc1c(-c3ccsc3)n[nH]c1-2	274 to 276
Cc1ccc(-c2nc3cccnc3n2CC(N)=O)s1	> 250
O=C1NC(C(=O)NCCO[N+](=O)[O-])C(c2cccs2)O1 (stereo not drawn)	101 to 103

Compound	melting point [°C]
COc1ccc2c(-c3ccccc3)c(C(=O)c3ccc(Cl)cc3)sc2c1	115
O=c1[nH]c2ncc(-c3ccc(-c4nn[nH]n4)cc3)nc2n1CC1CCCCC1	> 400
COC(=O)c1ccc(O)c([C@H](CCN(C(C)C)C(C)C)c2ccccc2)c1	102
CC1(C)CC(=O)c2cc(C#N)c(NC3CCCC3)nc2C1	154 to 156
CC(C)CCc1c(-c2ccc(S(C)(=O)=O)cc2)cnn(-c2ccc(F)c(Cl)c2)c1=O	55 to 58
N#Cc1ccc(NC2CCN(Cc3cccc(C(F)(F)F)c3)CC2)nn1	170
CS(=O)(=O)c1sc(S(N)(=O)=O)cc1CCO	120 to 124
CC(=O)NC(=O)OCc1nc(C(C)C)c(Sc2cc(Cl)cc(Cl)c2)n1Cc1ccncc1	135 to 137
Cc1ccc(C(=O)C2(O)CCCCC2)cc1C	103 to 104
Nc1c(F)cncc1F	99 to 101
Cc1ccc(N2C(=O)C(O)=C(C(=O)c3ccc(C(C)C)cc3)C2c2ccc(OC3CC3)cc2)nn1 (stereo not drawn)	285 to 288
Cc1ccc(-c2cc(-c3ccccc3)cc3c2OC(CN)C3)cc1 (stereo not drawn)	159 to 162
COc1ccc2cc(CCC(C)O)cc(F)c2c1 (stereo not drawn)	58 to 60
O=Cc1ccc(C(=O)NCC(F)(F)F)cc1	83 to 84
Fc1ccc2[nH]c(C3=Cc4ccccc4C3)cc2c1	272 to 275
CN(CCc1cn(C(=O)OCc2ccccc2)c2ccc([N+](=O)[O-])cc12)C(=O)C(F)(F)F	107 to 109
CCOC(=O)C(C(N)=O)C12CC3CC(CC(C3)C1)C2 (stereo not drawn)	97 to 98
CCN1CCN(c2cc3c(cc2F)c(=O)c(C(=O)O)cn3CC)CC1	251 to 253
CN(C)CCCCNC(=O)Cn1ncc(-c2ccccc2)c1-c1ccccc1	77 to 79
Cc1oc(-c2ccccc2)nc1COc1cccc(CON=C(CCCCC(=O)O)c2ccccc2)c1	114 to 115
CCC(=O)NC1=NN(c2ccccc2)C(c2ccc(C)cc2)C1 (stereo not drawn)	124 to 125
O=C1C2=C(CCCC2)C(=O)N1c1cc([N+](=O)[O-])ccc1F	154 to 156
O=C1c2ccccc2C(=O)N1CCS(=O)(=O)CCO	120 to 122
O=C(CCCCCNC(=O)c1cccc2ccccc12)NO	118 to 119
CCOC(=O)C1=C(C)NC2=C(C(=O)N(CCO)C2)C1c1ccccc1[N+](=O)[O-] (stereo not drawn)	210 to 211
CCOC(=O)C=C(C)NC(=O)C(C)(C)CCl	76 to 77.5

Compound	melting point [°C]
CN(C)C(c1ccccc1)C1CCCCC1(O)Cc1cccc(F)c1 (stereo not drawn)	146 to 147
CC(=O)n1nc(-c2ccccc2)cc1Sc1ccccc1	83 to 84.5
COC1(c2ccccc2)CCc2c(C(=O)O)cc3c(nc(C)n3C)c2O1 (stereo not drawn)	288 to 289
O=c1oc(-c2cccc(S(=O)(=O)C(F)(F)F)c2)nc2ccccc12	96 to 102
OCCCc1conc1-c1ccc(F)c(Br)c1	40 to 41
CCCCc1nccn1Cc1ccc2oc(-c3ccccc3C(=O)O)cc2c1	153 to 157
CC(C)(C)c1cc(OCc2ccccc2C#N)cc(C(C)(C)C)c1O	117 to 119
Cn1c(C(F)(F)F)cc(=O)n(-c2cc(OCCOCCCl)c(Cl)cc2F)c1=O	191 to 193
COc1cc2c(-c3ccccc3)csc2c(Cl)c1Cl	117 to 119
CCC1CC(=O)N(Cc2cccc(NC(C)=O)c2)N=C1c1ccc(OC)c(OC)c1 (stereo not drawn)	142
CNC(=S)SCCC(=O)O	86 to 87
Nc1nc2c(s1)CCN(CC=Cc1ccc(F)cc1)CC2	142 to 146
O=C(NCc1ccc(Cl)cc1)c1cnc2ccc(Br)cc2c1O	282 to 283
CC/C(=C(\c1ccc(/C=C/C(=O)O)cc1)c1ccc(OP(=O)(O)O)cc1)c1ccccc1	181 to 183
CCOC(=O)C(C#N)CCCCCCc1ccc(Cl)cc1 (stereo not drawn)	121 to 122
CN(NCc1ccccc1)c1cnn(-c2cccc(C(F)(F)F)c2)c(=O)c1	89 to 90
CC(CCC(=O)OCc1ccccc1)C1CC=C2C3=C(CCC21C)C1(C)CCC(O)C(C)(C)C1CC3 (stereo not drawn)	118 to 119
Nc1cc(=O)n(C2CCCC2)c2nc(N[C@H]3CC[C@H](O)CC3)ncc12	246 to 248
O=C(O)CP(=O)(O)CCCCc1ccccc1	110
Cc1cc(SCc2sc(-c3ccc(C(F)(F)F)cc3)nc2C)c2c(c1OCC(=O)O)CCC2	184
C=Cn1nnn(-c2cc(OC)c(Cl)cc2Cl)c1=O	142 to 143
CC(=O)N1CCN=C1Nc1c(Br)cccc1Br	182 to 185
O=C(O)CCCCOC(c1ccccc1)(c1ccccc1)c1ccccc1	146 to 148
CC(C)NCCCOc1ccc(N)cc1Cc1ccccc1	41.1
O=C(O)c1cn(C2CC2)c2cc(F)c(F)cc2c1=O	288 to 290
